Patent publication US7745423B2, “Calcium/sodium salt of inositol tripyrophosphate as an allosteric effector of hemoglobin” (NormOxys, Inc, priority 2004, dated 2010)
Values joined by “and” are separate entries in the source; they are usually repeats but may differ in a detail not shown here. Equal values may be shown once.

Key:
[1] = test system: hypoxic endothelial cells; assay: ITPP-Ca/Na loaded red blood cells on hypoxic endothelial cells in vitro; assay type: cell-based
murine whole blood = assay: P50 of murine whole blood after incubation with compound; assay type: cell-based
Method: (§1) For the in vitro experiments, ITPP was dissolved in deionized water, pH was adjusted at pH 7 and, for incubation with whole blood, the osmolarity of the ITPP solutions was adjusted with glucose to 270-297 mOsM. Mixtures of hemoglobin and ITPP were measured with a HEMOX analyzer (PD Marketing, London) immediately after mixing. Red blood cells were incubated with ITPP for 1 hour at 37° C. Following incubation, the cells were washed 3 times with Bis-Tris-buffer (pH=7.0) and then used for P50 measurement.

murine free Hb = murine free Hb (Mus musculus, UniProt P01942+P02088); assay: P50 of murine free Hb after incubation with compound (HEMOX analyzer); assay type: biochemical; conditions: for P50 (Torr) Hb + compound / P50 increase (%) + SD: murine free Hb, compound solution 60 mM
Method: as §1

human whole blood = assay: P50 of human whole blood after incubation with compound; assay type: cell-based; conditions: for P50 (Torr) compound + whole blood / P50 increase (%) + SD: human whole blood
Method: as §1
(§2) ITPP-Ca4Na acts as a powerful effector of hemoglobin shifting the oxygen fixation curves to the right, with respect to the natural effector bisphosphoglycerate. […] In FIG. 6, hemoglobin is incubated (at concentrations up to 100 mM final) with ITPP Ca4Na, for 1 hour at 37° C. and measured by TCS-hemox analyzer for p50 shifts. In FIG. 7, whole human blood was incubated (at concentrations up to 120 mM final) with ITPP Ca4Na, for 1 hour 37° C. and measured by TCS-hemox analyzer for p50 shifts.

human free Hb = human free Hb (Homo sapiens, UniProt P68871+P69905); assay: P50 of human free Hb after incubation with compound (HEMOX analyzer); assay type: biochemical; conditions: compound solution 60 mM
Method: as §1

porcine free Hb = porcine free Hb (Sus scrofa, UniProt P01965+P02067); assay: P50 of porcine free Hb after incubation with compound (HEMOX analyzer); assay type: biochemical; conditions: compound solution 60 mM
Method: as §1

porcine whole blood = assay: P50 of porcine whole blood after incubation with compound; assay type: cell-based; conditions: compound 60 mM
Method: as §1

hemoglobin [2] = molecular target: T1, hemoglobin (Homo sapiens, UniProt P68871+P69905); assay: p50 shift of hemoglobin incubated with ITPP Ca4Na (TCS-hemox analyzer); assay type: biochemical; conditions: up to 100 mM final, 1 hour at 37° C.
Method: as §2

circulating RBCs = assay: P50 of circulating RBCs after oral ITPP in drinking water; assay type: in vivo; conditions: drinking water 20 g/L (0.27 mM, pH ~7.0) ad libitum
Method: ITPP was dissolved in drinking water at a 20 g/L-concentration (0.27 mM, pH ˜7.0.) and offered for drinking ad libitum.

[3] = test system: VEGF mRNA in Lewis Lung carcinoma (LLC) tumors; assay: VEGF mRNA (RT-PCR) in Lewis Lung carcinoma tumors of ITPP drinking mice; assay type: in vivo, C57BL/6 mice; conditions: LLC tumor-bearing mice, ITPP 20 g/L orally, day 9, versus controls
Method: ITPP, when administered orally, intravenously, or intraperitoneally, inhibits angiogenesis in growing tumors by enhancing the PO2 in the forming tumors. […] Thereafter, all animals received 1×10^6 Lewis Lung carcinoma (LLC) cells, injected in the dorsal cavity. At different time points, the VEGF mRNA were assayed by RT-PCR in the tumors growing in both groups of mice.
There was a difference in the level of mRNA of the VEGF gene in both groups. […] The RT-PCR agarose gel assay of VEGF mRNAs from tumor tissue taken from 2 mice each on day 15 after inoculation of LLC cells (track 1: controls, track 2: ITPP treated animals) and day 30 after inoculation (track 3: control animals, track 4: ITPP treated animals).
Quantification of the gel assays indicated a reduction by a factor of 10,000 of the amount of VEGF mRNAs detected in the tumors of animals having received ITPP, at day 9 and then, while differences remain between treated and untreated animals, they tend to decrease.

hemoglobin [4] = molecular target: T1, hemoglobin; conditions: higher than DPG; cited from earlier work

Sequence of human free Hb (P69905 2-142 limits assumed): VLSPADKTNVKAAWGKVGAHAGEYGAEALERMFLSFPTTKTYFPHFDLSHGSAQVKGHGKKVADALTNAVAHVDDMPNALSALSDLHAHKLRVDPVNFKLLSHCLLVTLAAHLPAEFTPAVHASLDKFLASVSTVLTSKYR
Sequence of human free Hb (P68871 2-147 limits assumed): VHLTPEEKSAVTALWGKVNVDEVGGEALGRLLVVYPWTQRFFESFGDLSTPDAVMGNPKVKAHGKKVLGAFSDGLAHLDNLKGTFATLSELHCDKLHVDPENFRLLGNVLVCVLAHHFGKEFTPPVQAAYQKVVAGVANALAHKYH
Sequence of murine free Hb (P01942 2-142 limits assumed): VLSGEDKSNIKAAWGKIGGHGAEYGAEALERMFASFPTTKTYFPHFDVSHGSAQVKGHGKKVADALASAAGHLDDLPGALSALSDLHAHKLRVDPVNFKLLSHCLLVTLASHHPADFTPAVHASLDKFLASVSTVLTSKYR
Sequence of murine free Hb (P02088 2-147 limits assumed): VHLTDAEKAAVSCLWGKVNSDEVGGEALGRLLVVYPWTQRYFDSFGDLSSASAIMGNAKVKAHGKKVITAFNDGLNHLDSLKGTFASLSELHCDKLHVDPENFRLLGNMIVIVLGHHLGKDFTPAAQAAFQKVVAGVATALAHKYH
T1 sequence (P69905 2-142 limits assumed): as the sequence (P69905 2-142 limits assumed) above
T1 sequence (P68871 2-147 limits assumed): as the sequence (P68871 2-147 limits assumed) above
Sequence of porcine free Hb (P01965 whole entry): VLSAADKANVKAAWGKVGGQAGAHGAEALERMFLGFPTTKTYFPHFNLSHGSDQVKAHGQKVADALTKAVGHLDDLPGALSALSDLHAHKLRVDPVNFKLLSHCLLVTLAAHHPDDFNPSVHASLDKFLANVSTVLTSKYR
Sequence of porcine free Hb (P02067 2-147 limits assumed): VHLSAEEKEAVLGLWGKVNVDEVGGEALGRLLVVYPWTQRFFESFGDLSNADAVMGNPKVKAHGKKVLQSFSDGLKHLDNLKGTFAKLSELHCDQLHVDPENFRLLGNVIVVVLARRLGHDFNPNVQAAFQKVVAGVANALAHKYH

Row | Compound | P50 (Torr) compound + whole blood (murine whole blood; compound 30 mM) [Torr] | P50 increase (%) + SD (murine whole blood; compound 30 mM) [%] | P50 (Torr) Hb + compound (murine free Hb) [Torr] | P50 increase (%) + SD (murine free Hb) [%] | also measured
1 | O=P1([O-])OP(=O)([O-])O[C@H]2[C@H](O1)[C@@H]1OP(=O)([O-])OP(=O)([O-])O[C@@H]1[C@H]1OP(=O)([O-])OP(=O)([O-])O[C@H]21.[Ca+2].[Na+].[Na+].[Na+].[Na+] (racemic) [ITPP-Ca/Na, mixed calcium/sodium salt of inositol-tripyrophosphate] | – | – | – | – | effect on HIF-1 induction, VEGF and angiogenesis (FIG. 1) [1]: suppression of HIF-1 induction, VEGF and angiogenesis
2 | CN(C)C1CCCCC1.CN(C)C1CCCCC1.CN(C)C1CCCCC1.CN(C)C1CCCCC1.CN(C)C1CCCCC1.CN(C)C1CCCCC1.O=P1(O)OP(=O)(O)O[C@H]2[C@H](O1)[C@@H]1OP(=O)(O)OP(=O)(O)O[C@@H]1[C@H]1OP(=O)(O)OP(=O)(O)O[C@H]21 (racemic) [Compound 7, N,N-dimethylcyclohexyl ammonium salt of ITPP] | 52.0 | 30 ± 3 | 45.1 | 81 ± 15 | –
3 | O=P1([O-])OP(=O)([O-])O[C@H]2[C@H](O1)[C@@H]1OP(=O)([O-])OP(=O)([O-])O[C@@H]1[C@H]1OP(=O)([O-])OP(=O)([O-])O[C@H]21.[Ca+2].[Ca+2].[Ca+2] (racemic) [Compound 15, myo-inositol tripyrophosphate-calcium salt] | 42.3 | 8 ± 2 | 61.9 | 130 ± 30 | P50 (Torr) compound + whole blood (murine whole blood; compound 60 mM): 55.3 Torr; P50 (Torr) compound + whole blood (human whole blood; compound 30 mM): 31.0 Torr; P50 increase (%) + SD (human whole blood; compound 30 mM): 25% and 25 ± 3%; P50 (Torr) Hb + compound (human free Hb): 33.1 Torr; P50 increase (%) + SD (human free Hb): 170% and 170 ± 32%
4 | C1CNCCN1.C1CNCCN1.C1CNCCN1.O=P1(O)OP(=O)(O)O[C@H]2[C@H](O1)[C@@H]1OP(=O)(O)OP(=O)(O)O[C@@H]1[C@H]1OP(=O)(O)OP(=O)(O)O[C@H]21 (racemic) [Compound 14, tripiperazinium salt of ITPP] | 41.9 | 7 ± 1 | 82.9 | 254 ± 49 | –
5 | O=P1([O-])OP(=O)([O-])O[C@H]2[C@H](O1)[C@@H]1OP(=O)([O-])OP(=O)([O-])O[C@@H]1[C@H]1OP(=O)([O-])OP(=O)([O-])O[C@H]21.[Na+].[Na+].[Na+].[Na+].[Na+].[Na+] (racemic) [Compound 5, myo-inositol tripyrophosphate-sodium salt] | – | – | 69.7 | 180 ± 25 | P50 (Torr) compound + whole blood (murine whole blood; compound 4 mM): 47.4 Torr; P50 (Torr) Hb + compound (porcine free Hb): 68.1 Torr; P50 increase (%) + SD (porcine free Hb): 209 ± 39%; P50 (Torr) compound + whole blood (human whole blood; compound 60 mM): 30.8 Torr; P50 (Torr) Hb + compound (human free Hb): 49.8 Torr; P50 increase (%) + SD (human free Hb): 225 ± 19%; P50 (Torr) compound + whole blood (porcine whole blood): 44.2 Torr
6 | O=P1([O-])OC2C3OP(=O)([O-])OP(=O)([O-])OC3C3OP(=O)([O-])OP(=O)([O-])OC3C2OP(=O)([O-])O1.[Ca+2].[Na+].[Na+].[Na+].[Na+] (stereo not drawn) [ITPP-Ca4Na, monocalcium tetrasodium myo-inositol 1,6:2,3:4,5 trispyrophosphate] | – | – | – | – | p50 values of whole human blood (FIG. 7) (human whole blood; up to 120 mM final, 1 hour 37° C.): increase with concentration; p50 values of hemoglobin (FIG. 6) (hemoglobin [2]): increase with concentration
7 | NC1CCCCCC1.NC1CCCCCC1.NC1CCCCCC1.NC1CCCCCC1.NC1CCCCCC1.NC1CCCCCC1.O=P1(O)OP(=O)(O)O[C@H]2[C@H](O1)[C@@H]1OP(=O)(O)OP(=O)(O)O[C@@H]1[C@H]1OP(=O)(O)OP(=O)(O)O[C@H]21 (racemic) [Compound 11, cycloheptyl ammonium salt of ITPP] | 45.5 | 20 ± 2 | 43.8 | 71 ± 3 | –
8 | piperazinium salt of ITPP [Compound 13] | 41.7 | 10 ± 2 | 67.7 | 189 ± 43 | –
9 | NC1CCCCCCC1.NC1CCCCCCC1.NC1CCCCCCC1.NC1CCCCCCC1.NC1CCCCCCC1.NC1CCCCCCC1.O=P1(O)OP(=O)(O)O[C@H]2[C@H](O1)[C@@H]1OP(=O)(O)OP(=O)(O)O[C@@H]1[C@H]1OP(=O)(O)OP(=O)(O)O[C@H]21 (racemic) [Compound 12, cyclooctyl ammonium salt of ITPP] | 41.3 | 9 ± 1 | 30.6 | 23 ± 5 | –
10 | O=P1(O)OP(=O)(O)O[C@H]2[C@H](O1)[C@@H]1OP(=O)(O)OP(=O)(O)O[C@@H]1[C@H]1OP(=O)(O)OP(=O)(O)O[C@H]21.c1ccncc1.c1ccncc1.c1ccncc1.c1ccncc1.c1ccncc1.c1ccncc1 (racemic) [Compound 4, pyridinium salt of ITPP] | 42.7 | 13 ± 2 | 50.0 | 100 ± 18 | P50 (Torr) compound + whole blood (human whole blood; compound 30 mM): 24.3 Torr; P50 increase (%) + SD (human whole blood; compound 30 mM): 10 ± 4%; P50 (Torr) Hb + compound (human free Hb): 31.6 Torr; P50 increase (%) + SD (human free Hb): 107 ± 22%
11 | O=P1(O)OC2C3OP(=O)(O)OP(=O)(O)OC3C3OP(=O)(O)OP(=O)(O)OC3C2OP(=O)(O)O1 (stereo not drawn) [ITPP, inositol-tripyrophosphate] | – | – | – | – | P50 shift to higher PO2 (murine whole blood; maximum observed): up to 40%; shift of the P50 value of circulating RBCs (circulating RBCs): significant shift; reduction factor of the amount of VEGF mRNAs detected in the tumors [3]: 10,000; P50 shift to higher PO2 (murine free Hb; murine hemoglobin, maximum observed): up to 250%
12 | O=P(O)(O)O[C@H]1[C@H](OP(=O)(O)O)[C@@H](OP(=O)(O)O)[C@H](OP(=O)(O)O)[C@@H](OP(=O)(O)O)[C@H]1OP(=O)(O)O [IHP, inositol hexaphosphate] | – | – | – | – | affinity to hemoglobin relative to DPG (hemoglobin [4]): 1000 fold
